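Dose response: 5 concentrations. Exposure: 48 h. Format: 96-well plates. Endpoint: linear interpolation; highest concentration if not reached. Here, GI50 denotes the concentration required for 50% inhibition of growth.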 The source made the active and inactive calls. Rule as the data show it: active = GI50 up to about 1.1 µM and inactive = higher.
Tests used:
Test in all cases: NCI-60 cell line screen, 48 h
[1] = test system: 786-0
[2] = test system: A549
[3] = test system: ACHN
[4] = test system: CAKI-1
[5] = test system: CCRF-CEM
[6] = test system: COLO 205
[7] = test system: DLD-1
[8] = test system: DMS-114
[9] = test system: DMS-273
[10] = test system: EKVX
[11] = test system: HCC 2998
[12] = test system: HCT-116
[13] = test system: HCT-15
[14] = test system: HL-60
[15] = test system: HOP-18
[16] = test system: HOP-62
[17] = test system: HOP-92
[18] = test system: HT-29
[19] = test system: IGROV-1
[20] = test system: K562
[21] = test system: KM-20L2
[22] = test system: KM12
[23] = test system: LOX IMVI
[24] = test system: LXFL 529
[25] = test system: M14
[26] = test system: M19-MEL
[27] = test system: MOLT-4
[28] = test system: Malme-3M
[29] = test system: NCI-H226
[30] = test system: NCI-H23
[31] = test system: NCI-H460
[32] = test system: NCI-H522
[33] = test system: OVCAR-3
[34] = test system: OVCAR-4
[35] = test system: OVCAR-5
[36] = test system: OVCAR-8
[37] = test system: RPMI-8226
[38] = test system: SF-268
[39] = test system: SF-295
[40] = test system: SF-539
[41] = test system: SK-MEL-28
[42] = test system: SK-MEL-2
[43] = test system: SK-MEL-5
[44] = test system: SK-OV-3
[45] = test system: SN12C
[46] = test system: SNB-19
[47] = test system: SNB-75
[48] = test system: SNB-78
[49] = test system: SR
[50] = test system: SW-620
[51] = test system: TK-10
[52] = test system: U-251
[53] = test system: UACC-257
[54] = test system: UACC-62
[55] = test system: UO-31
[56] = test system: XF498
[57] = test system: RXF 393

`COc1cc(OC)cc(-c2cc(O)c3cc4c(cc3n2)OCO4)c1` was tested, and the GI50 [1] was 0.348 µM (active), the GI50 [2] was 0.428 µM (active) and the GI50 [3] was 0.321 µM (active). For the same compound, the GI50 [4] was 0.309 µM (active), the GI50 [5] was 0.206 µM (active) and the GI50 [6] was 0.192 µM (active). For the same compound, the GI50 [7] was 0.311 µM (active), the GI50 [8] was 0.218 µM (active) and the GI50 [9] was 0.306 µM (active). The GI50 [10] was 12.6 µM (inactive), the GI50 [11] was 0.225 µM (active) and the GI50 [12] was 0.169 µM (active). The GI50 [13] was 0.263 µM, the GI50 [14] was 0.162 µM (active) and the GI50 [15] was 16.3 µM (inactive). The GI50 [16] was 0.486 µM (active), the GI50 [17] was 0.314 µM (active) and the GI50 [18] was 0.295 µM (active). For the same compound, the GI50 [19] was 0.389 µM (active), the GI50 [20] was 0.15 µM (active) and the GI50 [21] was 0.217 µM (active). The GI50 [22] was 0.17 µM (active), the GI50 [23] was 0.367 µM (active) and the GI50 [24] was 0.211 µM (active). The GI50 [25] was 0.239 µM (active), the GI50 [26] was 0.321 µM (active) and the GI50 [27] was 0.364 µM (active). The GI50 [28] was 0.426 µM (active), the GI50 [29] was 0.251 µM (active) and the GI50 [30] was 0.351 µM (active). For the same compound, the GI50 [31] was 0.26 µM (active), the GI50 [32] was 0.139 µM (active) and the GI50 [33] was 0.136 µM (active). The GI50 [34] was 17.1 µM (inactive), the GI50 [35] was 4.35 µM (inactive) and the GI50 [36] was 0.395 µM (active). The GI50 [37] was 0.389 µM (active), the GI50 [38] was 0.54 µM (active) and the GI50 [39] was 0.2 µM (active). The GI50 [40] was 0.173 µM (active), the GI50 [41] was 0.194 µM (active) and the GI50 [42] was 0.165 µM (active). For the same compound, the GI50 [43] was 0.163 µM (active), the GI50 [44] was 0.27 µM (active) and the GI50 [45] was 0.367 µM (active). For the same compound, the GI50 [46] was 0.8 µM (active), the GI50 [47] was 2.32 µM (inactive) and the GI50 [48] was 0.295 µM (active). The GI50 [49] was 0.199 µM (active), the GI50 [50] was 0.203 µM (active) and the GI50 [51] was 1.74 µM (inactive). For the same compound, the GI50 [52] was 0.221 µM (active), the GI50 [53] was 1.96 µM (inactive) and the GI50 [54] was 0.209 µM (active). The GI50 [55] was 1.22 µM (inactive) and the GI50 [56] was 0.152 µM (active).
`NC1=NS(=O)(=O)Nc2[nH]c(-c3ccccc3)nc21` was tested, and the GI50 [1] was > 100 µM (inactive), the GI50 [2] was > 100 µM (inactive) and the GI50 [3] was > 100 µM (inactive). For the same compound, the GI50 [5] was > 100 µM (inactive), the GI50 [6] was > 100 µM (inactive) and the GI50 [7] was > 100 µM (inactive). For the same compound, the GI50 [8] was > 100 µM (inactive), the GI50 [9] was > 100 µM (inactive) and the GI50 [10] was > 100 µM (inactive). For the same compound, the GI50 [11] was > 100 µM (inactive), the GI50 [12] was > 100 µM (inactive) and the GI50 [13] was greater than 100 µM. The GI50 [14] was > 100 µM (inactive), the GI50 [15] was > 100 µM (inactive) and the GI50 [17] was > 100 µM (inactive). For the same compound, the GI50 [18] was > 100 µM (inactive), the GI50 [19] was > 100 µM (inactive) and the GI50 [20] was > 100 µM (inactive). For the same compound, the GI50 [21] was > 100 µM (inactive), the GI50 [22] was > 100 µM (inactive) and the GI50 [23] was > 100 µM (inactive). For the same compound, the GI50 [24] was > 100 µM (inactive), the GI50 [25] was > 100 µM (inactive) and the GI50 [26] was > 100 µM (inactive). For the same compound, the GI50 [27] was > 100 µM (inactive), the GI50 [28] was > 100 µM (inactive) and the GI50 [29] was > 100 µM (inactive). The GI50 [30] was > 100 µM (inactive), the GI50 [31] was > 100 µM (inactive) and the GI50 [32] was > 100 µM (inactive). The GI50 [33] was > 100 µM (inactive), the GI50 [34] was > 100 µM (inactive) and the GI50 [35] was > 100 µM (inactive). For the same compound, the GI50 [36] was > 100 µM (inactive), the GI50 [37] was > 100 µM (inactive) and the GI50 [57] was > 100 µM (inactive). For the same compound, the GI50 [38] was > 100 µM (inactive), the GI50 [39] was > 100 µM (inactive) and the GI50 [40] was > 100 µM (inactive). For the same compound, the GI50 [41] was > 100 µM (inactive), the GI50 [42] was > 100 µM (inactive) and the GI50 [43] was > 100 µM (inactive). The GI50 [44] was > 100 µM (inactive), the GI50 [45] was > 100 µM (inactive) and the GI50 [46] was > 100 µM (inactive). The GI50 [47] was > 100 µM (inactive), the GI50 [48] was > 100 µM (inactive) and the GI50 [49] was > 100 µM (inactive). For the same compound, the GI50 [50] was > 100 µM (inactive), the GI50 [51] was > 100 µM (inactive) and the GI50 [52] was > 100 µM (inactive). The GI50 [53] was > 100 µM (inactive), the GI50 [54] was > 100 µM (inactive) and the GI50 [55] was > 100 µM (inactive). For the same compound, the GI50 [56] was > 100 µM (inactive).
